Measured values taken from patent US20250120905A1, “THERAPEUTIC AGENTS TARGETING THE LYMPHATIC SYSTEM” (VIVASOR, INC, priority 2021, published 2025).

Legend:
[1] = system: patients with moderately to severely active Rheumatoid Arthritis (RA); assay: Phase 1b study of Enbrel administered by SOFUSA: ACR response; format: in vivo, human; conditions: week 10 vs baseline (week 0); Patient 01-002 and Patient 01-004; SOFUSA Enbrel 25 mg once weekly
From the text: (§1) An exemplary Sofusa Lymphatic Delivery System (SOFUSA) was designed to access the lymphatic system directly through the skin at the epidermal/dermal boundary (See FIG. 1) such that the infusion accessed afferent lymphatic capillaries when employed as described in Examples 2 and 3, below. The exemplary SOFUSA system was comprised of a microneedle device (see, e.g., FIG. 3A) and a syringe pump configured to administer anti-arthritic therapeutic agent, such as Enbrel, into the lymphatic circulation through the skin. This configuration was optimized to provide flow rates and pharmacokinetics using lymphatic anti-arthritic drug delivery in early phase clinical trials. The exemplary SOFUSA device was attached to the body of subjects via an attachment system that domed the skin upwards for consistent microneedle penetration, and a nylon strap with Velcro® that comfortably held the device down on the skin, keeping the microneedles in position until the dosing was complete (See, e.g., FIG. 2). Dose volume and infusion rate were set with an infusion pump (See, e.g., FIG. 2).
SOFUSA microneedles were arranged into an array and placed on the skin using a mechanical impact applicator. […]

[2] = system: patients with moderately to severely active Rheumatoid Arthritis (RA); assay: Phase 1b study of Enbrel administered by SOFUSA: DAS28 (ESR/CRP) disease activity scores; format: in vivo, human; conditions: Patient ID 01-002
From the text: as §1
(§2) SOFUSA microneedles were arranged into an array and placed on the skin using a mechanical impact applicator. A solution comprising Enbrel at a concentration of approximately 50 milligrams per milliliter (50 mg/mL) was then administered at a controlled infusion rate into the device, through the microneedles and into the skin using an external syringe pump. The solution comprising Enbrel was delivered into the body at an infusion rate of 0.5 milliliters per hour (mL/hr), which corresponded to an infusion period of one hour to deliver a 25 mg dose and 2 hours to deliver a 50 mg dose.
(§3) In this ongoing Phase 1b study, 25 mg of Enbrel (50% of the non-SOFUSA delivered subcutaneous dose) was administered lymphatically once weekly via SOFUSA to patients for 12 weeks. The study design calls for an increase in the SOFUSA-administered Enbrel dose to 50 mg during the dose escalation phase of the study (weeks 4-8) provided that dose escalation criteria are met. Patients remain on either the 25 mg or 50 mg dose for the final maintenance phase of the study. The dose escalation criteria for the Enbrel dose to be increased from 25 mg to 50 mg are: a DAS28 (ESR)≥3.2 and an increase in DAS28 (ESR)>0.6 compared to baseline.
(§4) Patients entered in the study had been treated with subcutaneous Enbrel with or without continuation of MTX, and have had either a primary (lack of sufficient efficacy with initial treatment) or secondary (initial efficacy but became inefficacious over time) inadequate response with the maximum approved dose of Enbrel. […] To the extent that inadequate response to Enbrel in some patients may be due to insufficient Enbrel levels in target lymphoid tissues or an inadequate immunologic response, Enbrel administered into the lymphatic system via SOFUSA was therefore theorized to provide a favorable clinical response despite an inadequate response to subcutaneous Enbrel administration.
(§5) This patient received SOFUSA-administered Enbrel at a 25 mg dosage once weekly for 12 weeks. Each week, SOFUSA was applied to the dorsal forearm with alternating left and right arm locations and the SOFUSA-administered Enbrel solution was infused through the skin into the lymphatic circulation for one hour.
Disease Activity Scores (DAS) 28 (DAS28) DAS28) were calculated based on 28 tender and swollen joints, Patient Global Assessment of Disease Activity, and C-Reactive Protein (CRP) or Erythrocyte Sedimentation Rate (ESR). DAS28 (ESR) and DAS28 (CRP) scores for Patient ID 01-002 are shown in FIG. 4A and FIG. 4B, respectively.

[3] = system: patients with moderately to severely active Rheumatoid Arthritis (RA); assay: Phase 1b study of Enbrel administered by SOFUSA: tender and swollen joint counts; format: in vivo, human
From the text: as §1, §2, §3, §4, §5
Joint counts were performed every 2 weeks. There was observed a consistent decrease in the number of tender and swollen joints using both 66/68 and 28 joint count criteria for the entire 12-week dosing period (See FIG. 5A and FIG. 5B, respectively).

patients with RA = conditions: cited from earlier work
[4] = system: patients with moderately to severely active Rheumatoid Arthritis (RA); assay: Phase 1b study of Enbrel administered by SOFUSA: DAS28 (ESR/CRP) disease activity scores; format: in vivo, human; conditions: Patient 01-004; SOFUSA Enbrel 25 mg once weekly; indicative of remission
[5] = system: patients with moderately to severely active Rheumatoid Arthritis (RA); assay: Phase 1b study of Enbrel administered by SOFUSA: patient/physician disease activity and pain Visual Analog Scale; format: in vivo, human; conditions: for Patient Assessment of Pain (VAS) decrease / Patient Global Assessment of Disease Activity (VAS) decrease / Physician Global Assessment of Disease Activity (VAS) decrease: SOFUSA Enbrel 25 mg once weekly for 12 weeks
From the text: as §1, §2, §3, §4, §5
Ratings were performed by each patient and physician on a Visual Analog Scale (VAS) every 2 weeks for disease activity (patient and physician) and disease-related pain (patient). […] In addition, the Patient Assessment of Pain for Patient ID 01-002 decreased from 46 mm at week 0 to 29 mm at week 12 (i.e., 37.0% decrease). The Physician Global Assessment of Disease Activity for Patient ID 01-002 decreased substantially from 50 mm at week 0 to 15 mm at week 12, corresponding to a 70.0% decrease in disease activity.

local lymphatic function = assay: Near-Infrared Fluorescence (NIRF) lymphatic imaging with Indocyanine Green; format: in vivo, human
Experimental: The local lymphatic function was measured using Near-Infrared Fluorescence (NIRF) imaging techniques with Indocyanine Green (ICG) at the beginning, at 6 weeks, and at the end of the study. […] The ICG was delivered at the opposite arm location as the Enbrel dosing.
In this regard, it has been speculated that lymphatic dysfunction may encourage the development of rheumatic autoimmune diseases such as scleroderma, lupus, and rheumatoid arthritis (see, e.g., Aletaha, D., et al., Ann. Rheum. Dis., 75, 1479-1485 (2016)). […] NIRF imaging of the lymphatics after infusion of a solution of ICG at the beginning, middle and end of the study. NIRF imaging was used to assess lymphatic pumping in RA patients before and after treatment with SOFUSA with Enbrel. Additionally, the imaging provided a visualization of the lymphatic vessels and was intended to confirm that SOFUSA delivers ICG solution directly into the lymphatics.

[6] = Etanercept lymph node concentrations after IV, SC, ID or lymphatic (Sofusa) delivery; format: in vivo; conditions: for etanercept concentration in lymph nodes, lymphatic (Sofusa) vs IV administration: percentage initial dose per gram of lymph tissue
Experimental: Etanercept was administered to subjects either via intravenous (IV), subcutaneous (SC), Intradermal (ID), or lymphatic (Sofusa) delivery. Average etanercept concentrations (expressed as percentage initial dose per gram of lymph tissue) in lymph node tissue was then determined at twelve and 36 hours post-administration. […] In particular, etanercept concentrations at 12 hours post lymphatic (Sofusa) administration were approximately 40-fold greater, and approximately 9-fold greater at 36 hours, than etanercept concentrations administered via IV.
Methods and procedures for some of these experiments have been adapted from Aldrich, et al., Arthritis Res. Ther., (2017), 19:116 (DOI 10.1186/s13075-017-1323-z; Open Access) which is incorporated by reference herein in its entirety for all purposes.

[7] = before SOFUSA dosing, inadequate response to weekly 50 mg Enbrel subcutaneous
[8] = Patient 01-002, by week 12 of the study
[9] = Patient ID 01-002 (FIG. 5), week 0 to week 12, SOFUSA Enbrel 25 mg once weekly
[10] = Patient ID 01-004, SOFUSA Enbrel 25 mg once weekly for 12 weeks
[11] = Patient ID 01-006, SOFUSA Enbrel 25 mg once weekly for 12 weeks
[12] = Patient ID 01-002, SOFUSA Enbrel 25 mg once weekly
[13] = Patient ID 01-002, before SOFUSA dosing
[14] = Patient ID 01-002, week 0 to week 12, SOFUSA Enbrel 25 mg once weekly

Substance: etanercept [Enbrel]
- ACR 50% response [1]: achieved
- DAS28 (ESR) at week 12 ([2]; SOFUSA Enbrel 25 mg once weekly, baseline 4.58): 3.02
- DAS28 (CRP) at Week 12 ([2]; SOFUSA Enbrel 25 mg once weekly, baseline 4.99): 3.12
- DAS28 (ESR) decrease from baseline ([2]; SOFUSA Enbrel 25 mg once weekly, week 12 vs baseline 4.58): 34.1%
- DAS28 (CRP) decrease from baseline ([2]; SOFUSA Enbrel 25 mg once weekly, week 12 vs baseline 4.99): 37.5%
- DAS28 (ESR) at Week 10 (lowest achieved) ([2]; after 10 weekly 25 mg SOFUSA Enbrel doses, level of remission): 2.10
- DAS28 (CRP) at baseline [2, 7]: 4.99
- DAS28 (CRP) at screening [2, 7]: 4.94
- DAS28 (ESR) at baseline [2, 7]: 4.58
- DAS28 (ESR) at screening [2, 7]: 4.62
- SJC66 decrease (ACR response section) [3, 8]: 55.6%
- TJC68 decrease (ACR response section) [3, 8]: 58.8%
- decrease in number of swollen joints, 28-Joint Count [3, 9]: 28.6%
- decrease in number of swollen joints, full 66-Joint Count [3, 9]: 44.4%
- decrease in number of tender joints, 28 Joint Count [3, 9]: 90.9%
- decrease in number of tender joints, full 68-Joint Count [3, 9]: 70.6%
- SJC66 decrease [3, 10]: 66.7%
- TJC68 decrease [3, 10]: 60.0%
- SJC66 change [3, 11]: unchanged
- TJC68 decrease [3, 11]: 70.6%
- efficacy response rate, ACR70 (patients with RA; Enbrel in combination with MTX, delivered systemically): < 50%
- patients achieving ACR70 (patients with RA; Enbrel plus MTX, at 3 and 6 months, Enbrel prescribing information): 15%
- DAS28 (ESR) at week 10 [4]: 2.10
- Patient Assessment of Pain (VAS) decrease (ACR response section) [5, 8]: 69.6%
- Patient Global Assessment of Disease Activity (VAS) decrease (ACR response section) [5, 8]: 63.5%
- Physician Global Assessment of Disease Activity (VAS) decrease (ACR response section) [5, 8]: 50.0%
- Patient Assessment of Pain (VAS) at week 12 [5, 12]: 29 mm
- Patient Global Assessment of Disease Activity (VAS, 100 mm) at week 12 [5, 12]: 21 mm
- Physician Global Assessment of Disease Activity (VAS) at week 12 [5, 12]: 15 mm
- Patient Assessment of Pain (VAS) at week 0 [5, 13]: 46 mm
- Patient Global Assessment of Disease Activity (VAS, 100 mm) at week 0 [5, 13]: 52 mm
- Physician Global Assessment of Disease Activity (VAS) at week 0 [5, 13]: 50 mm
- Patient Assessment of Pain, decrease [5, 14]: 37.0%
- Patient Global Assessment of Disease Activity, overall reduction [5, 14]: 59.6%
- Physician Global Assessment of Disease Activity, decrease [5, 14]: 70.0%
- Patient Assessment of Pain (VAS) decrease ([5]; Patient ID 01-004): 100.0%
- Patient Global Assessment of Disease Activity (VAS) decrease ([5]; Patient ID 01-004): 46.7%
- Physician Global Assessment of Disease Activity (VAS) decrease ([5]; Patient ID 01-004): 85.4%
- Patient Global Assessment of Disease Activity (VAS) decrease at week 10 ([5]; Patient ID 01-004, week 10 of the study): 73.3%
- Patient Assessment of Pain (VAS) decrease ([5]; Patient ID 01-006): 98.9%
- Patient Global Assessment of Disease Activity (VAS) decrease ([5]; Patient ID 01-006): 97.1%
- Physician Global Assessment of Disease Activity (VAS) decrease ([5]; Patient ID 01-006): 75.4%
- lymphatic pump rate at week 0 (local lymphatic function; week 0, before SOFUSA treatment, ICG at opposite arm): less than 0.5 pumps per minute
- lymphatic vessels visible by NIRF imaging at week 6 (local lymphatic function; week 6, after 6 SOFUSA Enbrel doses, vs week 0 (very few vessels visible)): significantly more lymphatic vessels could be imaged
- lymphatic pump rate at week 6 (local lymphatic function; week 6, after 6 SOFUSA Enbrel doses, ICG at opposite arm): greater than 2 pumps per minute
- etanercept concentration in lymph nodes, lymphatic delivery compared to all other tested delivery routes (IV, SC, ID) ([6]; 12 and 36 hours post-administration, FIG. 12): far greater
- etanercept concentration in lymph nodes, lymphatic (Sofusa) vs IV administration ([6]; 12 hours post administration): approximately 40 fold
- etanercept concentration in lymph nodes, lymphatic (Sofusa) vs IV administration ([6]; 36 hours post administration): approximately 9 fold
